Target: T1, HDM2 (Homo sapiens, UniProt Q00987)
T1 construct: Thioredoxin (N); made in house; host or cells: E. coli strain BL21(DE3)Rosetta
Assay: HDM2 FRET assay (inhibition of binding of FITC labeled p53-pocket peptide to HDM2)
Conditions: Table 22; read-out: FRET IC50
Procedure, shortened: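 TR-FRET with 0.5 nM His-tagged recombinant HDM2, 3 nM FITC-labelled p53 peptide and 0.25 nM Tb-anti-His antibody in PBS, 0.01% BSA, 0.01% Tween-20, 0.1% DMSO. IC50 from em520/em495 ratio over 10-point dilutions, 4-parameter logistic fit.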

T1 sequence (Q00987 17-125): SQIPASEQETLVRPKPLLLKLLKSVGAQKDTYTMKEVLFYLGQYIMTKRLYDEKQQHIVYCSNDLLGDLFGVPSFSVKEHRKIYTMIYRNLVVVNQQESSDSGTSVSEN

Structure (SMILES)	IC50 [nM]
C[C@@H](Nc1nc(-c2noc(=O)[nH]2)nc2nc(C(C)(O)c3cscn3)n(C[C@H]3CC[C@H](C)CC3)c12)C1CCC1 (stereo partly drawn) [Example 22.50, 3-(6-{[(1R)-1-cyclobutylethyl]amino}-8-[1-hydroxy-1-(1,3-thiazol-4-yl)ethyl]-7-[(trans-4-methylcyclohexyl)methyl] -7H-purin-2-yl)-1,2,4-oxadiazol-5(4H)-one]	10.3
C[C@@H](Nc1nc(-c2noc(=O)[nH]2)nc2nc(C(C)(O)c3cccnc3)n(C[C@H]3CC[C@H](C)CC3)c12)C1CCC1 (stereo partly drawn) [Example 22.51, 3-(6-{[(1R)-1-cyclobutylethyl]amino}-8-(1-hydroxy-1-pyridin-3-ylethyl)-7-[(trans-4-methylcyclohexyl)methyl] -7H-purin-2-yl)-1,2,4-oxadiazol-5(2H)-one]	21.2
C[C@@H](Nc1nc(-c2noc(=O)[nH]2)nc2nc(C(C)(O)c3cscn3)n(C[C@H]3CC[C@H](C)CC3)c12)C1CCC1 (stereo partly drawn) [Example 22.52, 3-(6-{[(1R)-1-cyclobutylethyl]amino}-8-[1-hydroxy-1-(1,3-thiazol-4-yl)ethyl]-7-[(trans-4-methylcyclohexyl)methyl] -7H-purin-2-yl)-1,2,4-oxadiazol-5(4H)-one]	1.85
C[C@@H](Nc1nc(-c2noc(=O)[nH]2)nc2nc(C3(c4ccncc4)CC3)n(C[C@H]3CC[C@H](C)CC3)c12)C1CCC1 [Example 22.53, 3-[6-{[(1R)-1-cyclobutylethyl]amino}-7-[(trans-4-methylcyclohexyl)methyl] -8-(1-pyridin-4-ylcyclopropyl)-7H-purin-2-yl]-1,2,4-oxadiazol-5(4H)-one]	4.6
C[C@@H](Nc1nc(-c2noc(=O)[nH]2)nc2nc(C3(c4cscn4)CC3)n(C[C@H]3CC[C@H](C)CC3)c12)C1CCC1 [Example 22.54, 3-(6-{[(1R)-1-cyclobutylethyl]amino}-7-[(trans-4-methylcyclohexyl)methyl] -8-[1-(1,3-thiazol-4-yl)cyclopropyl]-7H-purin-2-yl)-1,2,4-oxadiazol-5(4H)-one]	2.26
C[C@@H](Nc1nc(-c2noc(=O)[nH]2)nc2nc(C(C)(O)c3ccn(C)n3)n(C[C@H]3CC[C@H](C)CC3)c12)C1CCC1 (stereo partly drawn) [Example 22.55, 3-(6-{[(1R)-1-cyclobutylethyl]amino}-8-[1-hydroxy-1-(1-methyl-1H-pyrazol-3-yl)ethyl]-7-[(trans-4-methylcyclohexyl)methyl] -7H-purin-2-yl)-1,2,4-oxadiazol-5(2H)-one]	22.7
C[C@@H](Nc1nc(-c2noc(=O)[nH]2)nc2nc(C(C)(O)c3nccs3)n(C[C@H]3CC[C@H](C)CC3)c12)C1CCC1 (stereo partly drawn) [Example 22.56, 3-(6-{[(1R)-1-cyclobutylethyl]amino}-8-[1-hydroxy-1-(1,3-thiazol-2-yl)ethyl]-7-[(trans-4-methylcyclohexyl)methyl] -7H-purin-2-yl)-1,2,4-oxadiazol-5(4H)-one]	2.45
C[C@@H](Nc1nc(-c2noc(=O)[nH]2)nc2nc(C(O)C3CCC3)n(C[C@H]3CC[C@H](C)CC3)c12)C1CCC1 (stereo partly drawn) [Example 22.57, 3-(6-{[(1R)-1-cyclobutylethyl]amino}-8-[cyclobutyl(hydroxy)methyl]-7-[(trans-4-methylcyclohexyl)methyl] -7H-purin-2-yl)-1,2,4-oxadiazol-5(4H)-one]	9.75
C[C@@H](Nc1nc(-c2noc(=O)[nH]2)nc2nc(C(C)(O)c3nccs3)n(C[C@H]3CC[C@H](C)CC3)c12)C1CCC1 (stereo partly drawn) [Example 22.58, 3-(6-{[(1R)-1-cyclobutylethyl]amino}-8-[1-hydroxy-1-(1,3-thiazol-2-yl)ethyl]-7-[(trans-4-methylcyclohexyl)methyl] -7H-purin-2-yl)-1,2,4-oxadiazol-5(4H)-one]	7.21
C[C@@H](Nc1nc(-c2noc(=O)[nH]2)nc2nc(C3(c4nccs4)CC3)n(C[C@H]3CC[C@H](C)CC3)c12)C1CCC1 [Example 22.59, 3-(6-{[(1R)-1-cyclobutylethyl]amino}-7-[(trans-4-methylcyclohexyl)methyl] -8-[1-(1,3-thiazol-2-yl)cyclopropyl]-7H-purin-2-yl)-1,2,4-oxadiazol-5(4H)-one]	2.3
C[C@@H](Nc1nc(-c2noc(=O)[nH]2)nc2nc(C3(c4cnn(C)c4)CC3)n(C[C@H]3CC[C@H](C)CC3)c12)C1CCC1 [Example 22.63, 3-(6-{[(1R)-1-cyclobutylethyl]amino}-7-[(trans-4-methylcyclohexyl)methyl] -8-[1-(1-methyl-1H-pyrazol-4-yl)cyclopropyl]-7H-purin-2-yl)-1,2,4-oxadiazol-5(2H)-one]	7.93
C[C@@H](Nc1nc(-c2noc(=O)[nH]2)nc2nc(C3(O)CCOCC3)n(C[C@H]3CC[C@H](C)CC3)c12)C1CCC1 [Example 22.64, 3-(6-{[(1R)-1-cyclobutylethyl]amino}-8-(4-hydroxytetrahydro-2H-pyran-4-yl)-7-[(trans-4-methylcyclohexyl)methyl] -7H-purin-2-yl)-1,2,4-oxadiazol-5(4H)-one]	49
C[C@@H](Nc1nc(-c2noc(=O)[nH]2)nc2nc(C(F)c3ccccc3)n(C[C@H]3CC[C@H](C)CC3)c12)C1CCC1 (stereo partly drawn) [Example 22.66, 3-(6-{[(1R)-1-cyclobutylethyl]amino}-8-[fluoro(phenyl)methyl]-7-[(trans-4-methylcyclohexyl)methyl] -7H-purin-2-yl)-1,2,4-oxadiazol-5(4H)-one]	7.12
C[C@@H](Nc1nc(-c2noc(=O)[nH]2)nc2nc(C3(O)CCC3)n(C[C@H]3CC[C@H](C)CC3)c12)C1CCC1 [Example 22.67, 3-(6-{[(1R)-1-cyclobutylethyl]amino}-8-(1-hydroxycyclobutyl)-7-[(trans-4-methylcyclohexyl)methyl] -7H-purin-2-yl)-1,2,4-oxadiazol-5(2H)-one]	19.3
C[C@@H](Nc1nc(-c2noc(=O)[nH]2)nc2nc(C3(F)CCC3)n(C[C@H]3CC[C@H](C)CC3)c12)C1CCC1 [Example 22.68, 3-(6-{[(1R)-1-cyclobutylethyl]amino}-8-(1-fluorocyclobutyl)-7-[(trans-4-methylcyclohexyl)methyl] -7H-purin-2-yl)-1,2,4-oxadiazol-5(4H)-one]	16.9
COC1(c2nc3nc(-c4noc(=O)[nH]4)nc(N[C@H](C)C4CCC4)c3n2C[C@H]2CC[C@H](C)CC2)CCC1 [Example 22.69, 3-(6-{[(1R)-1-cyclobutylethyl]amino}-8-(1-methoxycyclobutyl)-7-[(trans-4-methylcyclohexyl)methyl] -7H-purin-2-yl)-1,2,4-oxadiazol-5(4H)-one]	4.54
C[C@@H](Nc1nc(-c2noc(=O)[nH]2)nc2nc(C3CCC3)n(C[C@H]3CC[C@H](C)CC3)c12)C1CCC1 [Example 22.70, 3-(8-cyclobutyl-6-{[(1R)-1-cyclobutylethyl]amino}-7-[(trans-4-methylcyclohexyl)methyl]-7H-purin-2-yl)-1,2,4-oxadiazol-5(4H)-one]	15.1
CC(c1ccccn1)c1nc2nc(-c3noc(=O)[nH]3)nc(N[C@H](C)C3CCC3)c2n1C[C@H]1CC[C@H](C)CC1 (stereo partly drawn) [Example 22.71, 3-[6-{[(1R)-1-cyclobutylethyl]amino}-7-[(trans-4-methylcyclohexyl)methyl] -8-(1-pyridin-2-ylethyl)-7H-purin-2-yl]-1,2,4-oxadiazol-5(4H)-one]	6.49

Source: patent EP2951180B1, “2,6,7,8 SUBSTITUTED PURINES AS HDM2 INHIBITORS” (Merck Sharp & Dohme Corp., priority 2013, dated 2014)
